A short description of one data set: PAMPA assay. Type of data set: in vitro ADME. An excerpt: (§1) To gain further information regarding intracellular compound localization, studies were extended to include a marker for the ER (Figure 8). The staining pattern for the individual probes are shown in Figure 8A (ER), Figure 8B (Lysosome) and Figure 8D (probe 9a). […] Moreover, when all three channels were merged, white specks were observed, indicating co-localization of probe 9a with cellular structures that are stained by both ER and lysosomal marker dyes (Figure 8F). […] These mechanisms provide a plausible explanation for the lower potency of compound 9 compared to compound 10. Finally, in vitro ADME (absorption, distribution, metabolism, and elimination) profiles were evaluated for compounds 9 and 10 to compare with the obtained cellular data (Supplementary Material, Figure S10). The aqueous solubility properties at physiological pH (7.40) of compounds 9 and 10 were good compared to controls. […] The combined findings indicate that the steric-effects of the hydroxysuccinate appendage of compound 10 renders it less prone to degradation by lysosomal activity or other competing cellular removal mechanisms.

The test system of another data set is BJ. The data set can be described thus: CTG viability assay (CellTiter-Glo, 72 h). It is filed as cell-based, human. The conditions noted are these: for EC50: Homo sapiens, BJ, CellTiter-Glo, 72 h, non-cancerous cells. How it is done: (§2) All human cell lines were incubated at 37 °C in a 5% CO2 atmosphere and maintained under sterile conditions. Cells were tested for Mycoplasma (Lonza, Alpharetta, GA, USA) using the manufacturer’s conditions prior to experiments. Cell lines were purchased from American Type Culture Collection (ATCC, Manassas, VA, USA) or Leibniz-Institute Deutsche Sammlung von Mikroorganismen und Zellkulturen GmbH (DSMZ, Braunschweig, Germany) and cultured without antibiotics unless stated. Leukemia cells were cultured in RPMI and supplemented with 10% fetal bovine serum (FBS, Hyclone, Logan, UT, USA). SUP-B15, and KOPN-8 lines were cultured in RPMI supplemented with 10% FBS (Hyclone), 1% GlutaMAX™, 1% Pen/Step, and 0.1% β-mercaptoethanol. BJ cells were cultured in EMEM media supplemented with 10% FBS (Hyclone). Breast cancer cells (MDA-MB-231 & SUM149) were cultured in DMEM and Ham’s F12 respectively, supplemented with 10% FBS, 1% GlutaMAX™, 1% Pen/Step, and 2 µM cortisol/1 µg/mL insulin for SUM149. Both cells were grown to 80% confluence densities as recommended by ATCC. PBMCs were supplemented with concanavalin-A (5 μg/mL) and IL-2 (50 U/ml). To test general cytotoxicity, the following cell numbers were used for 384 well plates: KOPN-8 (ACC 552, infant human B cell precursor acute lymphoblastic leukemia with MLL-MLLt1/ENL fusion, 1000 cells/well), SUP-B15 (ACC389, human B cell precursor acute lymphoblastic leukemia of pediatric second relapse carrying the ALL-variant (m-bcr) of BCR-ABL1 fusion gene (e1-a2), 1600 cells/well), NALM-06 (DSMZ ACC128, non-T/non-B ALL at relapse with P15INK4B and P16INK4A deletions, 1200 cells/well), UoC-B1 (pediatric BCP-ALL at second relapse with TCF3/E2A-HFL fusion, 1000 cells/well), BJ (CRL-2522, normal human foreskin fibroblast cells, 400 cells/well) and PBMCs (periphery blood monocyte cells from healthy donors, IBC#BDC046, 10,000 cells/well).
(§3) Cytotoxicity evaluation was performed using the CellTiter-Glo Luminescent Cell Viability Assay kit (G7570, Promega, Madison, WI, USA), according to the manufacturer’s instructions. Briefly, the cell concentrations used were experimentally determined to ensure logarithmic growth during the 72-h duration of the experiment, and avoid adverse effects on cell growth by DMSO exposure. 1 × 10^3–4.8 × 10^3 or 4 × 10^2–1.2 × 10^3 cells/well were seeded in 96 or 384-well white flat-bottomed plates (3610 or 8804BC, Corning, Corning, NY, USA) in 100 µL or 30 µL/well, respectively. The plates were incubated at 37 °C in 5% CO2 for 24 h before drugging. Test compounds (10 mM in DMSO) in nine 3-fold serial dilutions were dispensed via pintool (Biomek liquid handler, Beckman, Indianapolis, USA) to assay plates. The final concentration of DMSO was 0.3% (v/v) in each well. The positive controls included staurosporine (10 μM), and gambogic acid (10 μM). The plates were incubated for 72 h at 37 °C in 5% CO2, then quenched with CellTiter-Glo® (Promega, Madison, WI, USA, 50 µL/96 or 30 µL/384), centrifuged at 1000 rpm for 1 min and incubated at RT for 20 min. Luminescence was recorded with a plate reader (Envision, Perkin Elmer, Waltham, MA, USA). The mean luminescence of each experimental treatment group was normalized as a percentage of the mean intensity of untreated controls. EC50 values were calculated by Pipeline Pilot software (Accelrys, Enterprise Platform, San Diego, CA, USA).

The subject of data set [1] is SUP-B15. The data set can be described thus: CTG viability assay (CellTiter-Glo, 72 h). It is filed as cell-based, human. How it is done: as §2, §3
The nature of data set [2]: Metabolic stability in liver microsomes. It is filed as in vitro ADME. The conditions noted are these: for half-life: read-out: metabolic stability t1/2.
Source text: as §1

For data set [3], the system named is SUP-B15. Briefly: Cell cycle analysis (PI DNA content, flow cytometry). Type of data set: cell-based, human. The conditions noted are these: SUP-B15, 24 h; silvestrol 5 µM, 8 5 µM, 9 10 µM, 10 5 µM, 12 10 µM, 13 10 µM. How it is done: (§4) The samples were probed with AnnexinV-FITC (Roche/Boehringer Mannheim, Indianapolis, IN, USA) according to the manufacturer’s instructions. KOPN-8 or SUB-P15 cells were plated (1.00 × 10^6 cells/plate) and incubated for 12 h and incubated at 37 °C. Then, cells were treated with compounds or controls for 24 h. Cells were stained with AnnexinV-FITC, PI and the staining profiles were determined with FACScan and Cell-Quest software. For cellular DNA content, the same cell treatment as above was performed. Then, cells were fixed in cold 75% ethanol, treated with RNase and then stained with PI solution (50 µg/mL). Cell cycle distribution was analyzed with the FACSCalibur analyzer (BD Biosciences, Franklin Lakes, NJ, USA) and Cell-Quest software. The percentage of DNA content at different phases of the cell cycle was analyzed with ModFit-software (version 5.0, Verity Software House, Topsham, ME, USA).

The test system of another data set is KOPN-8. Described as above. It is filed as cell-based, human. The conditions noted are these: KOPN-8, 24 h; silvestrol 5 µM, 8 5 µM, 9 10 µM, 10 5 µM, 12 10 µM, 13 10 µM. How it is done:
as §4

Data set [4] is described as follows: Simulated gastric fluid (SGF) stability. It is filed as in vitro ADME. The conditions noted are these: read-out: SGF stability t1/2.
Source text: as §1

The subject of another data set is MDA-MB-231. The data set can be described thus: Propidium iodide (PI) assay, 48 h. Type of data set: cell-based, human. The conditions noted are these: MDA-MB-231, 48 h.
A short description of data set [5]: caco-2 permeability assay. It is filed as in vitro ADME. The conditions noted are these: human, read-out: efflux ratio, B2A/A2B.
Source text: as §1

Where two headings read alike, the source gives them in different places.

Experimental for MDA-MB-231: The first step was to evaluate if the compounds display cytotoxicity against the adherent cells. Propidium iodide (PI) assay was performed for the drug resistant solid tumor cellular models (triple negative breast cancer models: SUM149 and MDA-MB-231) for 48 h (Figure 5) [30, 31].

On to `COC(=O)C[C@](O)(CCCC(C)(C)O)C(=O)O[C@@H]1C(OC)=C[C@]23CCCN2CCc2cc4c(cc2[C@H]13)OCO4` [Compound 10, homoharringtonine, reference compound], for which the PAMPA permeability entry in the data set “PAMPA assay” is reported as “favorable permeability properties”. Besides, the EC50 is greater than 43.3 µM with BJ; 0.0452 µM in the data set with SUP-B15 [1] (Homo sapiens, SUP-B15, 72 h, mean ± SEM of triplicates); 0.045 ± 0.005 µM in the data set with SUP-B15 [1] (mean ± SEM of triplicates). Moreover, the “activity against BJ” value in the data set on BJ (at the highest tested concentration (43.3 µM)) was “no observable activity”. Besides, the half-life in data set [2] (human liver microsomes) is no less than 1 h; in data set [2] (mouse liver microsomes), no less than 1 h; in data set [4], greater than 33 h. The cell cycle effect result in the data set with SUP-B15 [3] and in the data set with KOPN-8 was “almost identical to silvestrol” each time. For the same molecule, the “activity in PI assay” value with MDA-MB-231 was “substantial activity”. Besides, the efflux ratio in data set [5] was less than 1.

As to `COC1=C[C@]23CCCN2CCc2cc4c(cc2[C@@H]3[C@@H]1O)OCO4` [Compound 9, cephalotaxine], the PAMPA permeability entry in “PAMPA assay” (PAMPA) was “favorable permeability properties”. The concentration giving a half-maximal response (EC50) in the data set with BJ was greater than 43.3 µM; in the data set with SUP-B15 [1] (Homo sapiens, SUP-B15, mean ± SEM of triplicates), 10.4 ± 0.75 µM. Further, the “metabolic stability t1/2” value in data set [2] (human liver microsomes) and in data set [2] (mouse liver microsomes) was “rapidly degraded” throughout. Further, the cell cycle effect result with SUP-B15 [3] and with KOPN-8 was “no significant cell arrest” throughout. Also, in [4] (simulated gi fluid), the half-life is greater than 33 h. In addition, in the data set on MDA-MB-231, the “activity in PI assay” value is “substantial activity”. The efflux ratio in data set [5] is roughly 2.

The values are drawn from publication PMC6571673, “Cytostatic and Cytotoxic Natural Products against Cancer Cell Models” (Molecules, 2019).
